pEC50, pIC50: −log10 of the molar value.
How the values were obtained:
[1] = test system: symmetric di-methyl arginine in Z-138 cells; experiment: Z-138 Methylation Assay (In Cell Western for symmetric di-methyl arginine and DNA content); type: cell-based; conditions: Homo sapiens, Z-138, Z-138 cells, read-out: ICW EC50
Description: [formula] Where top and bottom are the normally allowed to float, but may be fixed at 100 or 0 respectively in a 3-parameter fit. The Hill Coefficient normally allowed to float but may also be fixed at 1 in a 3-parameter fit. Y is the % inhibition and X is the compound concentration. Z-138 Methylation Assay
Z-138 suspension cells were purchased from ATCC (American Type Culture Collection, Manassas, Va.). RPMI/Glutamax medium, penicillin-streptomycin, heat inactivated fetal bovine serum, and D-PBS were purchased from Life Technologies, Grand Island, N.Y., USA. Odyssey blocking buffer, 800CW goat anti-rabbit IgG (H+L) antibody, and Licor Odyssey infrared scanner were purchased from Licor Biosciences, Lincoln, Nebr., USA. Symmetric di-methyl arginine antibody was purchased from EMD Millipore, Billerica, Mass., USA. 16% Paraformaldehyde was purchased from Electron Microscopy Sciences, Hatfield, Pa., USA.
Z-138 suspension cells were maintained in growth medium (RPMI 1640 supplemented with 10% v/v heat inactivated fetal bovine serum and 100 units/mL penicillin-streptomycin) and cultured at 37° C. under 5% CO2.
Cell Treatment, in Cell Western (ICW) for Detection of Symmetric Di-Methyl Arginine and DNA Content.
Z-138 cells were seeded in assay medium at a concentration of 50,000 cells per mL to a 384-well cell culture plate with 50 μL per well. Compound (100 nL) from 384 well source plates was added directly to 384 well cell plate. Plates were incubated at 37° C., 5% CO2 for 96 hours. After four days of incubation, 40 μL of cells from incubated plates were added to poly-D-lysine coated 384 well culture plates (BD Biosciences 356697). Plates were incubated at room temperature for 30 minutes then incubated at 37° C., 5% CO2 for 5 hours. After the incubation, 40 μL per well of 8% paraformaldehyde in PBS (16% paraformaldahyde was diluted to 8% in PBS) was added to each plate and incubated for 30 minutes. Plates were transferred to a Biotek 405 plate washer and washed 5 times with 100 μL per well of wash buffer (1×PBS with 0.1% Triton X-100 (v/v)). Next 30 μL per well of Odyssey blocking buffer were added to each plate and incubated 1 hour at room temperature. Blocking buffer was removed and 20 μL per well of primary antibody was added (symmetric di-methyl arginine diluted 1:100 in Odyssey buffer with 0.1% Tween 20 (v/v)) and plates were incubated overnight (16 hours) at 4° C. Plates were washed 5 times with 100 μL per well of wash buffer. Next 20 μL per well of secondary antibody was added (1:200 800CW goat anti-rabbit IgG (H+L) antibody, 1:1000 DRAQ5 (Biostatus limited) in Odyssey buffer with 0.1% Tween 20 (v/v)) and incubated for 1 hour at room temperature. The plates were washed 5 times with 100 μL per well wash buffer then 1 time with 100 μL per well of water. Plates were allowed to dry at room temperature then imaged on the Licor Odyssey machine which measures integrated intensity at 700 nm and 800 nm wavelengths. Both 700 and 800 channels were scanned.
First, the ratio for each well was determined by:
Each plate included fourteen control wells of DMSO only treatment (minimum inhibition) as well as fourteen control wells for maximum inhibition treated with 3 μM of a reference compound (Background wells). The average of the ratio values for each control type was calculated and used to determine the percent inhibition for each test well in the plate. Reference compound was serially diluted three-fold in DMSO for a total of nine test concentrations, beginning at 3 μM. Percent inhibition was determined and IC50 curves were generated using triplicate wells per concentration of compound. […]

[2] = test system: Z-138 cell line; experiment: Z-138 Proliferation Assay (Cell Titer Glo, 5 days); type: cell-based; conditions: Z-138 cells
Description: [formula] Z-138 Proliferation Assay
Z-138 suspension cells were purchased from ATCC (American Type Culture Collection, Manassas, Va.). RPMI/Glutamax medium, penicillin-streptomycin, heat inactivated fetal bovine serum were purchased from Life Technologies, Grand Island, N.Y., USA. V-bottom polypropylene 384-well plates were purchased from Greiner Bio-One, Monroe, N.C., USA. Cell culture 384-well white opaque plates were purchased from Perkin Elmer, Waltham, Mass., USA. Cell-Titer Glo® was purchased from Promega Corporation, Madison, Wis., USA. SpectraMax M5 plate reader was purchased from Molecular Devices LLC, Sunnyvale, Calif., USA.
Z-138 suspension cells were maintained in growth medium (RPMI 1640 supplemented with 10% v/v heat inactivated fetal bovine serum and cultured at 37° C. under 5% CO2 Under assay conditions, cells were incubated in assay medium (RPMI 1640 supplemented with 10% v/v heat inactivated fetal bovine serum and 100 units/mL penicillin-streptomycin) at 37° C. under 5% CO2.
For the assessment of the effect of compounds on the proliferation of the Z-138 cell line, exponentially growing cells were plated in 384-well white opaque plates at a density of 10,000 cells/ml in a final volume of 50 μl of assay medium. A compound source plate was prepared by performing triplicate nine-point 3-fold serial dilutions in DMSO, beginning at 10 mM (final top concentration of compound in the assay was 20 μM and the DMSO was 0.2%). A 100 nL aliquot from the compound stock plate was added to its respective well in the cell plate. […] After addition of compounds, assay plates were incubated for 5 days at 37° C., 5% CO2, relative humidity >90%.
Cell viability was measured by quantitation of ATP present in the cell cultures, adding 35 μl of Cell Titer Glo® reagent to the cell plates. Luminescence was read in the SpectraMax M5 microplate reader. The concentration of compound inhibiting cell viability by 50% was determined using a 4-parametric fit of the normalized dose response curves.

[3] = molecular target: PRMT5/MEP50 (Homo sapiens (Human), UniProt O14744); experiment: PRMT5 Biochemical Assay (PRMT5/MEP50 enzyme assay on peptide substrate, 3H-SAM Flashplate); conditions: PRMT5 biochemical assay; read-out: Biochemical IC50
Sequence of PRMT5/MEP50 (O14744 other isoform, or with tags, fused parts or gaps): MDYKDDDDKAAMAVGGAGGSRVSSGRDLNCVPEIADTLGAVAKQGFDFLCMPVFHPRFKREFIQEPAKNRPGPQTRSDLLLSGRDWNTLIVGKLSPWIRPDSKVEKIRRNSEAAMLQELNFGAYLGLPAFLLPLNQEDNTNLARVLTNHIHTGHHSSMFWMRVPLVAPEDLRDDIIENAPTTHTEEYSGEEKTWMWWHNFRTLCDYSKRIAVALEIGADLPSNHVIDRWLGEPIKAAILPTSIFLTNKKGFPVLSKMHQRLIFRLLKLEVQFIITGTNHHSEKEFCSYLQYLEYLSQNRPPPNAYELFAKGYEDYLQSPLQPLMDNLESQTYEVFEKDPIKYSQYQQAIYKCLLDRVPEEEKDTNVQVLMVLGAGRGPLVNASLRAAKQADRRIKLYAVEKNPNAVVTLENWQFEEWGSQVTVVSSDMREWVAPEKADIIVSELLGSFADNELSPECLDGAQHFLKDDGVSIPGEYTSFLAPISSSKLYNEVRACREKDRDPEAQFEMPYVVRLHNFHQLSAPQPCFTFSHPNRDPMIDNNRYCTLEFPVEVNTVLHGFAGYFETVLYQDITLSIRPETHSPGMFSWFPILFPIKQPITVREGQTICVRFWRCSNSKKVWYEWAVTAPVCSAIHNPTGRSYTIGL
Sequence of PRMT5/MEP50 (Q9BQA1 other isoform, or with tags, fused parts or gaps partner): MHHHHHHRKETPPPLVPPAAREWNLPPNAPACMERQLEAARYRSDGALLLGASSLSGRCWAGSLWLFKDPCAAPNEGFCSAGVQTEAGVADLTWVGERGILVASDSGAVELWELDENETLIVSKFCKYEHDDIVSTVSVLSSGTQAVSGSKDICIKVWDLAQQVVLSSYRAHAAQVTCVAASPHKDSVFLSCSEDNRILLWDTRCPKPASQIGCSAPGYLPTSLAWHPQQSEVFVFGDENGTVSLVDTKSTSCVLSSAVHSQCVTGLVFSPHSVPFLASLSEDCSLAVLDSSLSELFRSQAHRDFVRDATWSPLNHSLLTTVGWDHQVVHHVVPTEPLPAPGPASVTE

Compound	pEC50 [1]	pEC50 ([2]; Homo sapiens, Z-138, 120 h)	pIC50 [3]	pEC50 [2]
O=C(COc1cccc2cccnc12)NC[C@H](O)CN1CCc2ccccc2C1 [Compound 44, (S)—N-(3-(3,4-dihydroisoquinolin-2(1H)-yl)-2-hydroxypropyl)-2-(quinolin-8-yloxy)acetamide]	6.00 to 7.00	–	–	–
O=C(COc1ccccc1C1CCCNC1)NCC(O)CN1CCc2ccccc2C1 (centres unmarked) [Compound 117]	6.00 to 7.00	5.00 to 6.00	–	–
O=C(COc1cccc(-n2ccnc2)c1)NC[C@@H](O)CN1CCc2ccccc2C1 [Compound 194]	< 6.00	< 4.70	6.00 to 7.00	–
O=C(COc1cccc(-c2c[nH]cn2)c1)NC[C@@H](O)CN1CCc2ccccc2C1 [Compound 195]	< 6.00	< 4.70	5.00 to 6.00	–
O=C(COc1cccc(C(=O)NCCNCCO)c1)NC[C@@H](O)CN1CCc2ccccc2C1 [Compound 196]	< 6.00	< 4.70	6.00 to 7.00	–
O=C(COc1cccc(N2CCNCC2)c1)NC[C@@H](O)CN1CCc2ccccc2C1 [Compound 197]	6.00 to 7.00	4.30 to 5.00	> 7.00	–
CN(CCN)S(=O)(=O)c1ccccc1OCC(=O)NC[C@@H](O)CN1CCc2ccccc2C1 [Compound 198]	< 6.00	< 4.70	> 7.00	–
CC(=O)Nc1cccc(OCC(=O)NC[C@@H](O)CN2CCc3ccccc3C2)c1C1CCCNC1 (some centres unmarked) [Compound 199]	< 6.00	< 4.70	5.00 to 6.00	–
O=C(CCc1nc2ccccc2o1)NC[C@@H](O)CN1CCc2ccccc2C1 [Compound 200]	< 6.00	< 4.70	5.00 to 6.00	–
CNCCN(C)S(=O)(=O)c1ccccc1OCC(=O)NC[C@@H](O)CN1CCc2ccccc2C1 [Compound 201]	> 7.00	5.00 to 6.00	> 7.00	–
CC1CNCCN1S(=O)(=O)c1ccccc1OCC(=O)NC[C@@H](O)CN1CCc2ccccc2C1 (some centres unmarked) [Compound 202]	6.00 to 7.00	4.30 to 5.00	> 7.00	–
CC1CN(C)CCN1S(=O)(=O)c1ccccc1OCC(=O)NC[C@@H](O)CN1CCc2ccccc2C1 (some centres unmarked) [Compound 203]	6.00 to 7.00	< 4.70	6.00 to 7.00	–
CC(Oc1ccccc1[C@@H]1CCCNC1)C(=O)NC[C@@H](O)CN1CCc2ccccc2C1 (some centres unmarked) [Compound 204]	< 6.00	4.30 to 5.00	6.00 to 7.00	–
CC(Oc1ccccc1[C@H]1CCCNC1)C(=O)NC[C@@H](O)CN1CCc2ccccc2C1 (some centres unmarked) [Compound 205]	< 6.00	4.30 to 5.00	5.00 to 6.00	–
O=C(CCn1cnc2ccccc21)NC[C@@H](O)CN1CCc2ccccc2C1 [Compound 206]	< 6.00	< 4.70	5.00 to 6.00	–
Cc1ccc2[nH]c(CCC(=O)NC[C@@H](O)CN3CCc4ccccc4C3)nc2c1 [Compound 207]	6.00 to 7.00	4.30 to 5.00	6.00 to 7.00	–
O=C(CCc1nc2cc(Cl)ccc2[nH]1)NC[C@@H](O)CN1CCc2ccccc2C1 [Compound 208]	6.00 to 7.00	4.30 to 5.00	6.00 to 7.00	–
CN(C[C@@H](O)CN1CCc2ccccc2C1)C(=O)CCc1nc2ccccc2[nH]1 [Compound 209]	6.00 to 7.00	4.30 to 5.00	6.00 to 7.00	–
CC1CN(S(=O)(=O)c2ccccc2OCC(=O)NC[C@@H](O)CN2CCc3ccccc3C2)CCN1 (some centres unmarked) [Compound 210]	6.00 to 7.00	4.30 to 5.00	6.00 to 7.00	–
CC1CN(S(=O)(=O)c2ccccc2OCC(=O)NC[C@@H](O)CN2CCc3ccccc3C2)CCN1C (some centres unmarked) [Compound 211]	< 6.00	< 4.70	5.00 to 6.00	–
O=C(CCc1nc2cc(F)ccc2[nH]1)NC[C@@H](O)CN1CCc2ccccc2C1 [Compound 213]	6.00 to 7.00	< 4.70	6.00 to 7.00	–
CN(CCN1CCCCC1)S(=O)(=O)c1ccccc1OCC(=O)NC[C@@H](O)CN1CCc2ccccc2C1 [Compound 214]	> 7.00	6.00 to 7.00	> 7.00	–
NC1CN(S(=O)(=O)c2ccccc2OCC(=O)NC[C@@H](O)CN2CCc3ccccc3C2)CC1O (some centres unmarked) [Compound 215]	< 6.00	< 4.70	> 7.00	–
CN(C)C1CN(S(=O)(=O)c2ccccc2OCC(=O)NC[C@@H](O)CN2CCc3ccccc3C2)CC1O (some centres unmarked) [Compound 216]	6.00 to 7.00	< 4.70	6.00 to 7.00	–
O=C(COc1ccccc1S(=O)(=O)N1CCNC(CO)C1)NC[C@@H](O)CN1CCc2ccccc2C1 (some centres unmarked) [Compound 217]	6.00 to 7.00	< 4.70	6.00 to 7.00	–
Cn1cnc(CCNC(=O)c2cccc(OCC(=O)NC[C@@H](O)CN3CCc4ccccc4C3)c2)c1 [Compound 218]	< 6.00	< 4.70	6.00 to 7.00	–
CN(CC1CCNC1)S(=O)(=O)c1ccccc1OCC(=O)NC[C@@H](O)CN1CCc2ccccc2C1 (some centres unmarked) [Compound 219]	> 7.00	–	> 7.00	6.00 to 7.00
CN(C)S(=O)(=O)c1c(OCC(=O)NC[C@@H](O)CN2CCc3ccccc3C2)cccc1N1CCNCC1 [Compound 252]	> 7.00	> 7.00	–	–

— patent publication US9745291B2, “PRMT5 inhibitors containing a dihydro- or tetrahydroisoquinoline and uses thereof” (Epizyme, Inc., priority 2012, dated 2017)
